Test results as given in US11702404B2, “GLP-1R modulating compounds” (priority 2019, dated 2023).
Like-named read-outs stand apart in the source and are kept apart here.

Assays:
[1] = Microsomal stability, human liver microsomes (predicted hepatic clearance); conditions: predicted from in vitro microsomal stability data
GLP-1R = GLP-1R (Homo sapiens, UniProt P43220); experiment: GLP-1R activation: cAMP increase in CHO cells stably expressing GLP-1R; type: cell-based; conditions: read-out: EC50
[2] = cAMP increase, CHO cells stably expressing GLP-1R, 10 point dose response, 30 minutes incubation

GLP-1R, sequence (P43220 24-463): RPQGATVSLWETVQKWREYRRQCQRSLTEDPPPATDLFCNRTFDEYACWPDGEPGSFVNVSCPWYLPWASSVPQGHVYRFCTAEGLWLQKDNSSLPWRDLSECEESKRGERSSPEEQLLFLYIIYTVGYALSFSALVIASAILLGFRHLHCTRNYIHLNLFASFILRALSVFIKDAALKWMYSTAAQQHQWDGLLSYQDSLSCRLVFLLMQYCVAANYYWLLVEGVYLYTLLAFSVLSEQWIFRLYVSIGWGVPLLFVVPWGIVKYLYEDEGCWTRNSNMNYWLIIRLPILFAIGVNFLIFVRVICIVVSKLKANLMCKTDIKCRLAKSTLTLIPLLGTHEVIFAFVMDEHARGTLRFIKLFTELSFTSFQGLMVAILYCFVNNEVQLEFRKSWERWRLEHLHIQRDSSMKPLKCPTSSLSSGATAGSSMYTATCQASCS

Row | SMILES | Predicted Hepatic Clearance (Pred. Cl.) [1] [mL/min/kg] | EC50 (GLP-1R; [2]) [nM] | EC50 (GLP-1R) [nM]
1 | NC(=O)c1ccc(COc2cccc(-c3cc(F)c(Cc4nc5ccc(C(=O)O)cc5n4C[C@@H]4CCO4)cc3F)n2)c(OC(F)F)n1 [Example 857, (S)-2-(4-(6-((6-carbamoyl-2-(difluoromethoxy)pyridin-3-yl)methoxy)pyridin-2-yl)-2,5-difluorobenzyl)-1-(oxetan-2-ylmethyl)-1H-benzo[d]imidazole-6-carboxylic acid] | 3.17 | 0.35 | –
2 | N#Cc1ccc(COc2cccc(-c3ccc(Cc4nc5ccc(C(=O)O)cc5n4C4(CF)CC4)cc3F)n2)c(F)c1 [Example 209, 2-(4-(6-((4-cyano-2-fluorobenzyl)oxy)pyridin-2-yl)-3-fluorobenzyl)-1-(1-(fluoromethyl)cyclopropyl)-1H-benzo[d]imidazole-6-carboxylic acid] | 8.5 | 48.8 | –
3 | COCCn1c(Cc2ccc(-c3cccc(OCc4ccc(F)cc4)n3)cc2F)nc2ccc(C(=O)O)cc21 [Example 256, 2-(2-fluoro-4-(6-((4-fluorobenzyl)oxy)pyridin-2-yl)benzyl)-1-(2-methoxyethyl)-1H-benzo[d]imidazole-6-carboxylic acid] | 5.33 | 30.6 | –
4 | N#Cc1ccc(COc2nccc(-c3cc(F)c(Cc4nc5ccc(C(=O)O)cc5n4C[C@@H]4CCO4)c(F)c3)n2)c(F)c1 [Example 121, (S)-2-(4-(2-((4-cyano-2-fluorobenzyl)oxy)pyrimidin-4-yl)-2,6-difluorobenzyl)-1-(oxetan-2-ylmethyl)-1H-benzo[d]imidazole-6-carboxylic acid] | 2.67 | 0.66 | –
5 | O=C(O)c1cc(F)c2nc(Cc3ccc(-c4cccc(OCc5ccc(C(F)F)cc5F)n4)cc3F)n(C[C@@H]3CCO3)c2c1 [Example 648] | 2.33 | 0.09 | –
6 | COCCn1c(Cc2ccc(-c3ccc(C#N)c(OCc4ccc(C#N)cc4F)n3)cc2F)nc2ccc(C(=O)O)cc21 [Example 86, 2-(4-(5-cyano-6-((4-cyano-2-fluorobenzyl)oxy)pyridin-2-yl)-2-fluorobenzyl)-1-(2-methoxyethyl)-1H-benzo[d]imidazole-6-carboxylic acid] | <1.83 | 274 | –
7 | COCCn1c(Cc2cc(F)c(-c3cccc(OCc4ccc(C#N)cc4F)n3)cc2C)nc2ccc(C(=O)O)cc21 [Example 674] | 6 | 2.73 | –
8 | COCCn1c(Cc2ccc(-c3cccc(OCc4ccc(C#N)cc4F)n3)cc2-c2cnn(C(F)F)c2)nc2ccc(C(=O)O)cc21 [Example 190, 2-(4-(6-((4-cyano-2-fluorobenzyl)oxy)pyridin-2-yl)-2-(1-(difluoromethyl)-1H-pyrazol-4-yl)benzyl)-1-(2-methoxyethyl)-1H-benzo[d]imidazole-6-carboxylic acid] | 6.83 | 252 | –
9 | COCCn1c(Cc2cc(F)c(-c3cccc(OCc4cc(C#N)cs4)n3)cc2F)nc2ccc(C(=O)O)cc21 [Example 804] | 11.5 | 43.6 | –
10 | O=C(O)c1ccc2nc(Cc3cc(F)c(-c4nccc(OCc5ccc(C(F)(F)F)cc5F)n4)cc3F)n(C[C@@H]3CCO3)c2c1 [Example 754] | 6 | 0.15 | –
11 | N#Cc1ccc(COc2cccc(-c3ccc(Cc4nc5cccc(C(=O)O)c5n4CC4(CF)CC4)c(F)c3)n2)c(F)c1 [Example 224, 2-(4-(6-((4-cyano-2-fluorobenzyl)oxy)pyridin-2-yl)-2-fluorobenzyl)-1-((1-(fluoromethyl)cyclopropyl)methyl)-1H-benzo[d]imidazole-7-carboxylic acid] | 7.5 | 23.6 | –
12 | COCCn1c(Cc2ccc(-c3nc(OCc4ccc(C#N)cc4F)ccc3F)c(F)c2)nc2ccc(C(=O)O)cc21 [Example 114, 2-[[4-[6-[(4-cyano-2-fluoro-phenyl)methoxy]-3-fluoro-2-pyridyl]-3-fluoro-phenyl]methyl]-3-(2-methoxyethyl)benzimidazole-5-carboxylic acid] | 5.92 | 932 | –
13 | N#Cc1ccc(COc2ccc(F)c(-c3ccc(Cc4nc5ccc(C(=O)O)cc5n4C[C@@H]4CCO4)cc3)n2)c(F)c1 [Example 794] | 6.17 | 0.97 | –
14 | COCCn1c(Cc2cc(F)c(-c3cccc(OCc4ccc(C#N)cc4F)n3)cc2Cl)nc2ccc(C(=O)O)cc21 [Example 304, 2-(2-chloro-4-(6-((4-cyano-2-fluorobenzyl)oxy)pyridin-2-yl)-5-fluorobenzyl)-1-(2-methoxyethyl)-1H-benzo[d]imidazole-6-carboxylic acid] | 5.33 | 0.5 | –
15 | N#Cc1ccc(COc2cccc(-c3ccn(Cc4nc5ccc(C(=O)O)cc5n4CC4(n5ccnn5)CC4)c(=O)c3)n2)c(F)c1 [Example 421, 1-((1-(1H-1,2,3-triazol-1-yl)cyclopropyl)methyl)-2-((6-((4-cyano-2-fluorobenzyl)oxy)-2′-oxo-[2,4′-bipyridin]-1′(2′H)-yl)methyl)-1H-benzo[d]imidazole-6-carboxylic acid] | <1.83 | 327 | –
16 | COCCn1c(Cc2ccc(-c3cccc(OCc4ccc(Cl)cc4OCC(F)F)n3)cc2F)nc2ccc(C(=O)O)cc21 [Example 244, 2-(4-(6-((4-chloro-2-(2,2-difluoroethoxy)benzyl)oxy)pyridin-2-yl)-2-fluorobenzyl)-1-(2-methoxyethyl)-1H-benzo[d]imidazole-6-carboxylic acid] | 5.67 | 159 | –
17 | N#Cc1ccc(COc2cccc(-c3cc(F)c(Cc4nc5ccc(C(=O)O)cc5n4C4COCCOC4)cc3F)n2)c(F)c1 [Example 702] | 2.67 | 8.14 | –
18 | N#CCC1(Cn2c(Cc3cc(F)c(-c4cccc(OCc5ccc(C(F)F)cc5F)n4)cc3F)nc3ccc(C(=O)O)cc32)CC1 [Example 718] | 1.83 | 0.05 | –
19 | CC(=O)N1C[C@H](O)C[C@@H]1Cn1c(Cc2cc(F)c(-c3cccc(OCc4ccc(C#N)cc4F)n3)cc2F)nc2ccc(C(=O)O)cc21 [Example 848] | 2.83 | 4.08 | –
20 | N#Cc1ccc(COc2cccc(-c3cc(F)c(Cc4nc5ccc(C(=O)O)cc5n4CCNc4ccccc4)cc3F)n2)c(F)c1 [Example 895] | 8 | – | 79.9
21 | COCCn1c(Cc2ccc(-c3cccc(OCc4ccc(C#N)cc4F)n3)c(F)c2F)nc2ccc(C(=O)O)cc21 [Example 45, 2-(4-(6-((4-cyano-2-fluorobenzyl)oxy)pyridin-2-yl)-2,3-difluorobenzyl)-1-(2-methoxyethyl)-1H-benzo[d]imidazole-6-carboxylic acid] | 3.83 | 36 | –
22 | COCCC1(Cn2c(Cc3cc(F)c(-c4cccc(OCc5ccc(C#N)cc5F)n4)cc3F)nc3ccc(C(=O)O)cc32)CC1 [Example 739] | 1.83 | 0.74 | –
